Assay results published in US12409172B2, “Dosage regimen” (UNION therapeutics A/S, priority 2023, dated 2025).

What was measured:
[1] = system: healthy volunteers; test: Clinical trial LP0058-1442 (phase 1, NCT03812198): safety and tolerability in healthy volunteers; assay type: in vivo
Protocol: The safety, tolerability, and PK of orismilast MR and IR formulations were tested in a phase 1 clinical trial (NCT03812198) on healthy volunteers. Participants were randomised (3:1) to received orismilast MR or placebo (n=12). Orismilast MR was administered twice-daily for a total of 17 days. Orismilast MR was initiated at 10 mg twice-daily on days 1-2, increased to 20 mg twice-daily on days 3-4, to 30 mg twice-daily on days 5-6, to 40 mg twice-daily on days 7-8, to 50 mg twice-daily on days 9-10, and finally to 60 mg twice-daily on days 11-17.
Twenty-seven (27) healthy volunteers received a single administration of 30 mg orismilast, and 9 subjects received multiple administrations over a period of 17 days with an up-titration up to a maximum of 60 mg BID. Part 1 of this study was to evaluate the key PK parameters of the new modified-release formulation compared to the reference capsule formulation with immediate release.
In that study, patients received orismilast 30 mg BID immediate release or placebo for 16 weeks.

[2] = system: adults with moderate to severe atopic dermatitis; test: Phase 2b study in atopic dermatitis (Example 8): treatment emergent adverse events; assay type: in vivo, human
Excerpt: The exploratory objectives are to: • Evaluate pharmacokinetic (PK) and pharmacodynamic parameters relevant to AD • Evaluate the effect of orismilast on the pulmonary status and course of the disease in patients with asthma Primary Endpoint • Percentage change in Eczema Area and Severity Index (EASI) score from Baseline at Week 16. […]

## O=C(Cc1c(Cl)c[n+]([O-])cc1Cl)c1ccc(OC(F)F)c2c1OC1(CCS(=O)(=O)CC1)O2 [orismilast, 2-(3,5-dichloro-1-oxidopyridin-1-ium-4-yl)-1-[7-(difluoromethoxy)-1′,1′-dioxospiro[1,3-benzodioxole-2,4′-thiane]-4-yl]ethanone]
[1]; 40-mg dose level
  number of adverse events of headache at the 40-mg dose level: 6
[1]; dose equal or lower to 40 mg
  number of participants with nausea at a dose equal or lower to 40 mg: 2
[1]; modified-release tablet, healthy volunteers
  maximal tolerated dose: 40 mg BID
[1]; subjects receiving orismilast, up-titration up to 60 mg BID
  number of adverse events of headache: 14
[1]; up-titration up to 60 mg BID, 9 subjects
  number of subjects with nausea: 5
[2]; 20 mg BID
  patients experiencing any Treatment Emergent Adverse Event (TEAE) through Week 16: 76%
[2]; 30 mg BID
  patients experiencing any Treatment Emergent Adverse Event (TEAE) through Week 16: 79%
[2]; 40 mg BID
  patients experiencing any Treatment Emergent Adverse Event (TEAE) through Week 16: 86%
